Patent US9526728B2, “Medical use of a DPP-4 inhibitor” (Boehringer Ingelheim International GmbH, priority 2014, dated 2016)

Tests used:
[1] = CKD population; need for dose adjustment; cited from earlier work
[2] = Metabolic parameters (HbA1c, active GLP-1); type: in vivo, rat; details: seven weeks; for plasma active GLP-1 levels: both sham and SNx rats, linagliptin 1.5 mg/kg/day or sitagliptin 20 mg/kg/day; for HbA1c: sham and SNx rats, linagliptin 1.5 mg/kg/day or sitagliptin 20 mg/kg/day oral gavage
Description: (§1) Briefly, animals were anesthetized with 2.5% inhaled isoflurane, the right kidney was removed via subcapsular nephrectomy and infarction of approximately two thirds of the left kidney was achieved via selective ligation of two out of the three or four branches of the left renal artery. Sham surgery consisted of laparotomy and manipulation of both kidneys before wound closure. Rats were followed for eight weeks after surgery. […] All rats were housed in a stable environment and allowed free access to Reverse Osmosis water and standard rat chow.
Blood glucose was measured with Accu-check Advantage (Roche, Mississauga, Ontario). HbA1c was measured using A1cNow+ (Bayer, Sunnyvale, Calif.). Active GLP-1 was determined using active GLP-1 (v2) kit (Meso Scale Discovery, Rockville, Md.).
Sham and SNx rats treated with vehicle, linagliptin and sitagliptin. Heart weights and kidney weights were increased in SNx rats relative to sham. HbA1c was unchanged in all treatment groups.

[3] = tested on: subtotally nephrectomized (SNx) rats; test: Cardiac catheterization, pressure volume loops (cardiac function); type: in vivo, rat; details: in comparison to vehicle-treated SNx rats, linagliptin 1.5 mg/kg/day or sitagliptin 20 mg/kg/day, seven weeks
Description: as §1
Cardiac catheterization was performed as previously published. Briefly, rats were anesthetized (2% isoflurane), placed on a warming pad (37 °C), intubated and ventilated using positive pressure. The right internal carotid artery was ligated cranially and a 2F miniaturized combined conductance catheter-micromanometer (Model SPR-838, Millar Instruments, Houston, Tex.) was inserted into the carotid artery and advanced into the left ventricle until stable pressure volume (PV) loops were obtained. […] All PV loops were obtained with the ventilator turned off for 5-10 seconds and the animal apneic. […] A range of functional parameters were then calculated using the pressure conductance data (Millar analysis software PVAN 3.4).

[4] = tested on: subtotally nephrectomized (SNx) rats; test: Cardiac gene expression (real time PCR); type: in vivo, rat; details: SNx rats vs vehicle-treated SNx; seven weeks treatment
Description: Briefly, animals were anesthetized with 2.5% inhaled isoflurane, the right kidney was removed via subcapsular nephrectomy and infarction of approximately two thirds of the left kidney was achieved via selective ligation of two out of the three or four branches of the left renal artery. Sham surgery consisted of laparotomy and manipulation of both kidneys before wound closure. Rats were followed for eight weeks after surgery. […] All rats were housed in a stable environment and allowed free access to Reverse Osmosis water and standard rat chow. RNA was isolated from homogenized rat heart tissue using TRIzol reagent (Life Technologies, Grand Island, N.Y.). Total RNA (4 μg) was treated with RQ1 DNase (1U/μl) (Promega, Madison, Wis.). DNase treated RNA (4 μg) was reverse-transcribed in a final volume of 25 μl using 0.5 μl AMV-RT (Roche Diagnostics, Laval, Quebec) in the manufacturer's buffer containing 1 mmol/L dNTPs, 0.5 μl RNase inhibitor (Roche) and 2 μg random hexamers (GE Healthcare Life Sciences, Baie d'Urfe, Quebec). […]

[5] = tested on: subtotally nephrectomized (SNx) rats; test: Immunohistochemistry for cardiac collagen I; type: in vivo, rat; details: SNx rats vs vehicle-treated SNx; seven weeks treatment
Description: as §1
Immunohistochemistry for fibrillar collagen type I (Southern Biotech, Birmingham, Ala.) was performed as previously described with the antibody used at a concentration of 1:400. Stained heart sections were scanned with the Aperio ScanScope system (Aperio, Vista, Calif.) and analysed with ImageScope (Aperio). Interstitial collagen I was determined as the proportional area of positive immunostaining in 10 randomly selected fields (×100 magnification).

[6] = tested on: subtotally nephrectomized (SNx) rats; test: Myocyte hypertrophy (H&E stained sections); type: in vivo, rat; details: SNx rats vs vehicle-treated SNx; seven weeks treatment
Description: as §1
Cardiac myocyte hypertrophy was determined on haematoxylin and eosin (H&E) stained sections, as previously reported. Myocyte cross sectional area was determined on H&E stained sections as adapted from the methods described by Frustaci and colleagues.

[7] = tested on: subtotally nephrectomized (SNx) rats; test: Renal function (blood pressure, urine protein excretion, GFR); type: in vivo, rat; details: seven weeks treatment; for GFR: FITC-inulin clearance
Description: as §1
For estimation of urine protein excretion, rats were individually housed in metabolic cages for 24 h with free access to tap water and standard diet. Urine protein was measured with the benzethonium chloride method. Urinary excretion of markers of renal injury was determined using Rat KidneyMAP v1.0 (Myriad RBM, Austin, Tex.) and expressed as the ratio to urine creatinine determined by autoanalyzer. Glomerular filtration rate (GFR) was determined by FITC-inulin clearance, as previously described.

[8] = tested on: sham and subtotally nephrectomized (SNx) rats; test: Renal structure (glomerulosclerosis index, JG-12 and collagen IV immunohistochemistry); type: in vivo, rat; details: either sham or SNx rats; seven weeks treatment
Description: as §1
A minimum of 50 glomeruli were examined in PAS-stained kidney sections from each rat. […] Glomerulosclerosis was defined as basement membrane thickening, mesangial hypertrophy and capillary occlusion. A glomerulosclerosis index (GSI) was then calculated using the formula:
[formula] Where Fi is the percentage of glomeruli in the rat kidney with a given score (i).
Immunohistochemistry for glomerular capillary density and tubulointerstitial collagen IV Immunohistochemistry of kidney tissue was performed as previously described with antibodies in the following concentrations: JG-12 1:1000 (Bender Medsystems GbdH, Vienna, Austria) and collagen IV 1:100 (Southern Biotech). Kidney sections were scanned with the Aperio ScanScope system and analysed with ImageScope, as already described. Glomerular endothelial (JG-12) immunostaining was determined in 30 glomerular profiles from each rat kidney section. For estimation of tubulointerstitial collagen IV, the proportional area of positive immunostaining (excluding glomeruli) was determined in 10 randomly selected cortical fields (×100 magnification).

[9] = tested on: patients with type 2 diabetes; details: recent meta-analysis; cited from earlier work

Compound	route of clearance [1]	plasma active GLP-1 levels [2]	HbA1c [2]	end diastolic pressure volume relationship (EDPVR) [3]	cardiac collagen I mRNA [4]	cardiac collagen I protein [5]	cardiomyocyte size determined in H&E stained sections [6]	GFR [7]	blood pressure [7]	proteinuria [7]	cortical tubulointerstitial collagen IV immunostaining [8]	glomerular capillary density (JG-12 immunostaining) [8]	albuminuria [9]
Cn1c(=O)cc(N2CCC[C@@H](N)C2)n(Cc2ccccc2C#N)c1=O [alogliptin]	cleared in the urine												
CC#CCn1c(N2CCC[C@@H](N)C2)nc2c1c(=O)n(Cc1nc(C)c3ccccc3n1)c(=O)n2C [linagliptin, 1-[(4-methyl-quinazolin-2-yl)methyl]-3-methyl-7-(2-butyn-1-yl)-8-(3-(R)-amino-piperidin-1-yl)-xanthine]	secreted via the bile	similarly increased	unchanged	significantly lower	attenuation in the overexpression	attenuation in the overexpression	neither cardiomyocyte size determined in H&E stained sections (FIGS. 2C1 and 2C2) nor α-MHC:β-MHC ratio were changed	neither linagliptin nor sitagliptin significantly affected	neither linagliptin nor sitagliptin significantly affected	neither linagliptin nor sitagliptin significantly affected	None of these markers of renal structural injury were affected	None of these markers of renal structural injury were affected	reduction in albuminuria
N#C[C@@H]1C[C@@H]2C[C@@H]2N1C(=O)[C@@H](N)C12CC3CC(CC(O)(C3)C1)C2 [saxagliptin]	cleared in the urine												
N[C@@H](CC(=O)N1CCn2c(nnc2C(F)(F)F)C1)Cc1cc(F)c(F)cc1F [sitagliptin]	cleared in the urine	similarly increased	unchanged	significantly lower	attenuation in the overexpression	attenuation in the overexpression	neither cardiomyocyte size determined in H&E stained sections (FIGS. 2C1 and 2C2) nor α-MHC:β-MHC ratio were changed	neither linagliptin nor sitagliptin significantly affected	neither linagliptin nor sitagliptin significantly affected	neither linagliptin nor sitagliptin significantly affected	None of these markers of renal structural injury were affected	None of these markers of renal structural injury were affected	
